We go through 34 compounds from the Deep4Chem optical property database.

The nature of the data set: solvent given as SMILES.

With `CCc1ccc(/C=C/c2ccc(-c3nnc(-c4ccc(-c5cc6ccccc6s5)cc4)o3)cc2)cc1`, the absorption maximum runs as follows: (in CC#N) 342 nm; (in CC(C)=O) 347 nm; (in CCCCCCCC) 341 nm; (in CCCCCCCCCCO) 357 nm; (in CCCCCCCCO) 357 nm; (in CCCCCO) 354 nm. The compound also had an absorption maximum (in CCCO) of 347 nm, an absorption maximum (in CN(C)C=O) of 355 nm, an absorption maximum (in CO) of 326 nm and an absorption maximum (in CS(C)=O) of 350 nm.
In the case of `C=CCOc1nnc(OCCC(F)(F)C(F)(F)C(F)(F)C(F)(F)C(F)(F)C(F)(F)C(F)(F)C(F)(F)F)nn1`, the absorption maximum reads like this: (in ClCCl) 526 nm; (in OCC(F)(F)F) 512 nm.
Where the note is “in ClCCl”, `CC(C)(C)c1cc(-c2c3cc(c(-c4cc(C(C)(C)C)cc(C(C)(C)C)c4)c4ccc([nH]4)c(-c4ccc([N+](=O)[O-])cc4)c4nc(c(-c5ccc([N+](=O)[O-])cc5)c5ccc2[nH]5)C=C4)N=C3)cc(C(C)(C)C)c1` returned an absorption maximum of 726 nm.
In turn, `Cc1ccc(C)c(C2=C3C=CC(=[N+](C)C)C=C3[Si](C)(C)c3cc(N(C)C)ccc32)c1` showed an absorption maximum (in O) of 646 nm.
For `c1ccc(-c2nc(-c3ccc(-c4ccc(N(c5ccccc5)c5ccccc5)cc4)cn3)oc2-c2ccccc2)cc1`, the absorption maximum (in C1CCOC1) was determined as 351 nm; the absorption maximum (in C1COCCO1) was determined as 354 nm; the absorption maximum (in CC#N) is on record as 353 nm; the absorption maximum (in CC(C)=O) is 352 nm; the absorption maximum (in CC(C)OC(C)C) was 351 nm; the absorption maximum (in CCCCCC) is reported as 353 nm. In addition, the absorption maximum stood at 353 nm (in CCCCOCCCC); 348 nm (in CCN(CC)CC); 351 nm (in CCOC(C)=O); 348 nm (in CCOCC); 358 nm (in Cc1ccccc1); 359 nm (in c1ccccc1).
In turn, `Cc1cc(C)c(B(c2c(C)cc(C)cc2C)c2cc3ccc4ccccc4c3c3c2cc(N(C)C)c2ccccc23)c(C)c1` returned an absorption maximum (in C1CCCCC1) of 438 nm; an absorption maximum (in C1CCOC1) of 439 nm; an absorption maximum (in CC#N) of 437 nm; an absorption maximum (in ClC(Cl)Cl) of 440 nm; an absorption maximum (in c1ccccc1) of 440 nm.
In the case of `CN(/N=C1\N=C(N)C2(CCCC2)c2ccccc21)c1ccccc1`, the absorption maximum (in ClCCl) is 378 nm.
The same measure, in the same setting: under `COc1cc(OC)cc(C2=[O+][B-](F)(F)OC(c3ccc4cc(OC)ccc4c3)=C2)c1` stands 427 nm.
With `O=C(O)c1ccc(-c2nc(-c3ccccc3)c3ccccn23)cc1`, the absorption maximum (in CC#N) is 372 nm.
On to `Cc1ccc(N(c2ccc(C)cc2)c2ccc(-c3ccc(C=C(C#N)C#N)o3)cc2)cc1`, for which the absorption maximum (in ClC(Cl)Cl) is listed as 521 nm.
Where the note is “in C1CCOC1”, `FC(F)(F)C(F)(F)C(F)(F)C1=NC2=C(c3ccccc3)C=C3c4cc(-c5ccccc5)c5nc(C(F)(F)C(F)(F)C(F)(F)F)nc6c(-c7ccccc7)cc(c4c56)=C4C=C(c5ccccc5)C(=N1)C2C34` (centres undefined) showed an absorption maximum of 500 nm.
Turning to `CC(C)[Si](C#Cc1c2cc3ccccc3cc2c(C#C[Si](C(C)C)(C(C)C)C(C)C)c2nc3cc4c(cc3nc12)C1c2ccccc2C4c2ccccc21)(C(C)C)C(C)C`, the absorption maximum worked out at 675 nm (in CCCCCC) and 683 nm (in ClCCl).
Compound `CC1(C)c2ccccc2N(c2ccc(C(=O)/C=C(\O)c3ccc(N4c5ccccc5C(C)(C)c5ccccc54)cc3)cc2)c2ccccc21` displayed an absorption maximum (in Cc1ccccc1) of 406 nm.
`Cc1ccc(-c2ccc(/C=C/c3ccc(N(C)C)cc3)cn2)nc1` returned an absorption maximum (in CC#N) of 383 nm.
Regarding `CC1(C)Cc2c(c3ccccc3c3nc4c(nc23)c2c(c3ccccc34)OC(C)(C)C2)O1`, the absorption maximum is recorded as 451.06 nm (in C1CCCCC1); 453.93 nm (in C1COCCO1); 454.96 nm (in CC#N); 452.08 nm (in CC(C)O); 450.05 nm (in CCCCCC); 457.04 nm (in ClC(Cl)Cl). The compound also returned an absorption maximum (in c1ccccc1) of 454.96 nm.
As for `CCOC(=O)CN1C(=O)C2=C(c3ccc(N4CCCCC4)cc3)N(CC(=O)OCC)C(=O)C2=C1c1ccc(C#N)cc1`, the absorption maximum is, setting by setting: (in CC#N) 524 nm; (in CS(C)=O) 541 nm; (in Cc1ccccc1) 527 nm.
`COc1ccc2c(c1)[n+]([O-])nc(N)[n+]2[O-]`: the absorption maximum reads like this: (in CC#N) 432 nm; (in O) 440 nm.
The compound `O=C(c1ccc2c3c(cccc13)-c1cccc3c1C2CC=C3)c1c(Cc2ccccc2)c2ccc3cccc4c5cccc6ccc1c(c65)c2c34` (centres undefined) came in with an absorption maximum (in ClCCl) of 467 nm.
On to `CC(C)(C)c1cc2c3c(c1)-c1cccc4c1N(B3N1c3ccccc3Sc3cccc-2c31)c1ccccc1S4`, for which the absorption maximum (in C1CCOC1) is 381 nm.
`C(=C\c1ccc(N(c2ccccc2)c2ccccc2)cc1)/c1ccccc1`: the absorption maximum runs as follows: (in CC#N) 362 nm; (in CCCCCC) 362 nm.
In turn, `CCn1c(-c2ccc(OC)cc2)c(-c2ccc3ccccc3c2)c(-c2ccc3ccccc3c2)c1-c1ccc(OC)cc1` displayed an absorption maximum (in CCOC(C)=O) of 259 nm.
As to `CN(C)c1ccc(C#Cc2nc(-c3ccccc3)nc3ccccc23)cc1`, the absorption maximum (in ClCCl) worked out at 414 nm.
On the same count and under the same terms, under `F[B-]1(F)n2c(Cl)c(Cl)c(Br)c2C(Cl)=C2C(Br)=C(Cl)C(Cl)=[N+]21` stands 546 nm.
As for `C[Si](C)(C)c1cc2c(cc3ccc4cccc5ccc2c3c45)[nH]1`, where the note is “in CCOC(C)=O”, the absorption maximum stood at 392 nm.
Under “in ClCCl”, `CN(C)c1ccc(C2=C3C=C(c4ccc(C=O)cc4)S[C@]34c3ccccc3[C@H]2c2ccccc24)cc1` returned an absorption maximum of 464 nm.
Same read-out and setting: the figure for `CCCCc1ccc2c(c1)c1ccc3cccc4c3c1c1c2c2cccc3ccc5c6cc(CCCC)ccc6c4c1c5c32` is 492 nm.
The compound `c1ccc([B-]2(c3ccccc3)Oc3ccc4ccccc4c3-c3c4ccccc4nc[n+]32)cc1` registered an absorption maximum (in Cc1ccccc1) of 451 nm.
For the compound `O=S(=O)(c1ccc(N(c2ccccc2)c2ccccc2)cc1)c1ccc(S(=O)(=O)c2ccc(N(c3ccccc3)c3ccccc3)cc2)cc1`, where the note is “in Cc1ccccc1”, the absorption maximum is given as 354 nm.
`C[Si](C)(C)c1sc([Si](C)(C)C)c2c1sc1c3sc4c(sc5c4sc4c([Si](C)(C)C)sc([Si](C)(C)C)c45)c3sc12`: for the setting “in ClC(Cl)Cl”, the absorption maximum is recorded as 405 nm.
Compound `CCCCCCn1c(=O)c2c3[nH]c4cc5sc6c([nH]c5cc4sc3c3c(=O)n(CCCCCC)c(=O)c3c2c1=O)c1c(=O)n(CCCCCC)c(=O)c1c1c(=O)n(CCCCCC)c(=O)c61` returned an absorption maximum (in ClCCl) of 549 nm.
Regarding `CCN1c2ccc(-c3cc(C(F)(F)F)[nH]n3)cc2Sc2cc(-c3cc(C(F)(F)F)[nH]n3)ccc21`, the absorption maximum is on record as 336 nm (in C1CCOC1); 336 nm (in CC#N); 336 nm (in CN(C)C=O); 334 nm (in ClCCl); 336 nm (in c1ccccc1).
Where the note is “in CS(C)=O”, `COc1cc(OC)cc(C2=C3C(C)=C(I)C(C)=[N+]3[B-](F)(F)n3c(C)c(I)c(C)c32)c1` gave an absorption maximum of 538 nm.
Regarding `CC(C)(C)c1ccc2c(c1)c1cc(C(C)(C)C)ccc1n2-c1ccc2oc3nc4oc5cc(C(F)(F)F)ccc5c4cc3c2c1`, the absorption maximum (in ClC(Cl)Cl) is reported as 346 nm.
Consider `c1ccc([B-]2(c3ccccc3)Oc3ccc4ccccc4c3-c3c4ccccc4cn[n+]32)cc1`, for which the absorption maximum (in Cc1ccccc1) turned out to be 436 nm.
